Reference: patent US20240368174A1, “Antiviral Heterocyclic Compounds” (Enanta Pharmaceuticals, Inc., priority 2023, published 2024)
pEC50: −log10 of the molar value.

tested on: genotype A, “Long” strain RSV; experiment: RSV-A assay (CPE, ATPlite readout in Hep-2 cells); format: cell-based, Human respiratory syncytial virus; conditions: human respiratory syncytial virus, activity class
Description: Hep-2 cells, (originally derived from tumors grown in irradiated-cortisonised weanling rats that had been injected with epidermoid carcinoma tissue from the larynx of a person, but later found to be indistinguishable from HeLa cells by PCR DNA analysis), were used for the culturing of genotype A, “Long” strain RSV. Flasks were inoculated with RSV and viral stocks were collected once cytopathic effect (CPE) was greater than 90%. Viral stocks in 25% sucrose media were snap frozen using liquid nitrogen to increase viral stability. Viral stock titers were quantified by tissue culture infectious dose 50% (TCID50) using 8,000 cells per well and 3-fold viral dilutions across a 96-well plate, cultured for 4 days. Viral stock titers were also quantified by a plaque forming unit assay, as described elsewhere.
Following extensive parameter testing, the final assay is run as follows: Hep-2 cells are seeded into the inner 60 wells of a 96-well plate at 8,000 cells per well in a volume of 50 μL using Growth Media (DMEM without phenol red, 1% L-Glut, 1% Penn/Strep, 1% nonessential amino acids, 10% heat-inactivated FBS). 2-fold serial dilutions of control and test compounds are added to the wells in duplicate in a total volume of 25 μL. Viral stock is then added to the wells at a multiplicity of infection (MOI) of 0.1 in a volume of 25 μL, bringing the total volume of each well to 100 μL. The MOI is calculated using the PFU/mL, or TCID50 if unavailable. Each 96-well plate has a control column of 6 wells with cells and virus but no compound (negative control, max CPE), a column with cells but no compound or virus (positive control, minimum CPE), and a column with no cells or virus or compound (background plate/reagent control). The control wells with cells but no virus are given an additional 25 μL of growth media containing an equal quantity of sucrose as those wells receiving the viral stock in order to keep consistent in media and volume conditions. The outer wells of the plate are filled with 125 μL of moat media (DMEM, 1% Penn/Strep) to act as a thermal and evaporative moat around the test wells. Following a 5-day incubation period, the plates are read using ATPlite (50 uL added per well), which quantifies the amount of ATP (a measure of cell health) present in each well. Assay plates are read using the Envision luminometer. […] EC50 ranges are as follows: A<0.2 μM; B>0.2 μM.

Structure (SMILES) | pEC50
C[C@]1(C(N)=O)COc2c1cc([C@@](O)(CNC(=O)c1cc(Cl)c3nn(C4CC4)cc3c1)C1(F)CC1)nc2-c1cc(C(F)(F)F)ncc1F [Example 671] | > 6.70
COc1cc(C(=O)NC[C@@](O)(c2ccccc2)c2cc3c(c(-c4ccnc(F)c4Cl)n2)OC[C@]3(C)C(N)=O)cc2cn(C3CC3)nc12 [Example 343] | > 6.70
COc1cc(C(=O)NC[C@](O)(c2cc3c(c(-c4cc(Cl)c(F)cc4F)n2)OC[C@]3(C)C(N)=O)C2(CF)CC2)cc2cn(C3CC3)nc12 [Example 212] | > 6.70
C[C@]1(C(N)=O)COc2c1cc([C@@](O)(CNC(=O)c1cc(OCCO)c3nn(C4CC4)cc3c1)C1CC1)nc2-c1ccc(F)c(Cl)c1Cl [Example 677] | > 6.70
COc1cc(C(=O)NC[C@](O)(c2cc3c(c(-c4cc(C(F)(F)F)ncc4F)n2)OC[C@]3(C)C(N)=O)C2(F)CC2)cc2cn(C3(F)CC3)nc12 [Example 459] | > 6.70
COc1cc(C(=O)NC[C@](O)(c2cc3c(c(-c4cncc(Cl)c4Cl)n2)OC[C@]3(C)C(N)=O)C2CC2)cc2cn(C(F)F)nc12 [Example 772] | > 6.70
COc1cc(C(=O)NC[C@](O)(c2cc3c(c(-n4ccc5c(F)cccc54)n2)OC[C@]3(C)C(N)=O)C(F)(F)F)cc2cn(C(F)F)nc12 [Example 684] | > 6.70
COc1cc(C(=O)NC[C@@](O)(c2ccnc(N(C)C)c2)c2cc3c(c(-c4cc(Cl)c(F)cc4F)n2)OC[C@]3(C)C(N)=O)cc2cn(C3CC3)nc12 [Example 884] | > 6.70
COc1cc(C(=O)NC[C@](O)(c2cc3c(c(-c4ccnc(C(F)(F)F)c4Cl)n2)OC[C@]3(C)C(N)=O)C2CC2)cc2cn(C3CC3)nc12 [Example 419] | > 6.70
COc1cc(C(=O)NC[C@](O)(c2cc3c(c(-c4cc(C(F)(F)F)ncc4F)n2)OC[C@]3(C)C(N)=O)C(F)(F)F)cc2cn(C3CC3)nc12 [Example 425] | > 6.70
COc1cc(C(=O)NC[C@](O)(c2cc3c(c(-n4nc(Cl)c5ccccc54)n2)OC[C@]3(C)C(N)=O)C2CC2)cc2cn(C3CC3)nc12 [Example 451] | > 6.70
COc1cc(C(=O)NC[C@](O)(c2cc3c(c(-c4ccnc(C)c4Cl)n2)OC[C@]3(C)C(N)=O)C2CC2)cc2cn(C3(F)CC3)nc12 [Example 754] | > 6.70
COc1cc(C(=O)NC[C@](O)(c2cc3c(c(-n4ccc5cccc(F)c54)n2)OC[C@]3(C)C(N)=O)C2CC2)cc2cn(C3CC3)nc12 [Example 455] | > 6.70
COc1cc(C(=O)NC[C@](O)(c2cc3c(c(-c4ccnc(C(F)(F)F)c4Cl)n2)OC[C@]3(C)C(N)=O)C2(F)CC2)cc2cn(C3CC3)nc12 [Example 784] | > 6.70
COc1cc(C(=O)NC[C@](O)(c2cc3c(c(-n4ccc5cc(F)ccc54)n2)OC[C@]3(C)C(N)=O)C2CC2)cc2cn(C3CC3)nc12 [Example 453] | > 6.70
COc1cc(C(=O)NC[C@](O)(c2cc3c(c(-c4ccnc5c4CCC5)n2)OC[C@]3(C)C(N)=O)C2CC2)cc2cn(C3CC3)nc12 [Example 421] | > 6.70
COc1cc(C(=O)NC[C@](O)(c2cc3c(c(-c4cccc(OC(F)(F)F)c4Cl)n2)OC[C@]3(C)C(N)=O)C2CC2)cc2cn(C3CC3)nc12 [Example 440] | > 6.70
C[C@]1(C(N)=O)COc2c1cc([C@@](O)(CNC(=O)c1cc(OCCO)c3nn(C4CC4)cc3c1)C1CC1)nc2-c1ccc(F)c(F)c1Cl [Example 676] | > 6.70
COc1cc(C(=O)NC[C@](O)(c2cc3c(c(-c4ccnc(C)c4Cl)n2)OC[C@]3(C)C(N)=O)C2CC2)cn2cc(C3CC3)nc12 [Example 672] | > 6.70
COc1cc(C(=O)NC[C@](O)(c2cc3c(c(-c4cc(C(F)(F)F)ncc4F)n2)OC[C@]3(C)C(N)=O)C2(F)CC2)cn2cc(C3CC3)nc12 [Example 461] | > 6.70
COc1cc(C(=O)NC[C@](O)(c2cc3c(c(-c4cccc(OC(F)F)c4Cl)n2)OC[C@]3(C)C(N)=O)C2CC2)cc2cn(C3CC3)nc12 [Example 439] | > 6.70

tested on: HMPV clinical isolate A2 strain TN 94-49; experiment: HMPV antiviral assay, Method 2 (LLC-MK2 cells with CP-100-356, ATP-Lite); format: cell-based; conditions: human metapneumovirus, 168 h; hMPV A2 TN/94-49, LLC-MK2 cells with 4 μM CP-100-356, 7 days, ATP-Lite
In short: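 LLC-MK2 rhesus kidney cells (5,000/well) infected in suspension with HMPV A2 TN 94-49 at MOI 0.16, in serum-free medium with final 2 μg/mL TPCK-trypsin and 2 μM CP-100-356. Compounds tested in duplicate from 200 nM, 2.5-fold, 10 points; 7 days at 37 °C. Cell health by ATP-Lite luminescence; EC50 by four-parameter fit.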

Structure (SMILES) | pEC50
C[C@]1(C(N)=O)COc2c1cc([C@@](O)(CNC(=O)c1cc(Cl)c3nn(C4CC4)cc3c1)C1(F)CC1)nc2-c1cc(C(F)(F)F)ncc1F [Example 671] | > 6.70

same assay, conditions: human metapneumovirus; hMPV A2 TN/94-49, LLC-MK2 cells with CP-100-356, Method 2

Structure (SMILES) | pEC50
COc1cc(C(=O)NC[C@@](O)(c2ccccc2)c2cc3c(c(-c4ccnc(F)c4Cl)n2)OC[C@]3(C)C(N)=O)cc2cn(C3CC3)nc12 [Example 343] | > 6.70
COc1cc(C(=O)NC[C@](O)(c2cc3c(c(-c4cc(Cl)c(F)cc4F)n2)OC[C@]3(C)C(N)=O)C2(CF)CC2)cc2cn(C3CC3)nc12 [Example 212] | < 6.70
